Source: patent US11534457B2, “Use of dextran sulfate” (priority 2017, dated 2022)

Test system: human Schwann cells
Assay: Gene expression array and pathway analysis, Schwann cells
Format: cell-based
Method: For each cell line, n=8×25 cm^2 culture flasks were set up. Two flasks were harvested for each cell type on the day of treatment (24 hours after seeding). This represents the Day0 time point. From the remaining flasks, three flasks were treated with Control Medium and three were treated with Culture Medium (CM) containing LMW-DS to give a final concentration of 0.01 mg/ml. Cells from the treated flasks were collected after 48 hours. Therefore the collected data represent (a) untreated cells (Day0 Controls and Day2 Controls) and (b) cells treated with LMW-DS for 48 hours (Day2 LMW-DS treated).
25 cm^2 flasks were coated by adding 2 ml per flask of a solution of 50 μg/ml poly-d-lysine in Hank's balanced salt solution (HBSS) and incubating overnight at 37° C. in the dark. Flasks were washed with cell culture water and air-dried for 30 min in the dark. Flasks were coated by adding 1 ml per flask of a solution of 25 μg/ml laminin in phosphate-buffered saline (PBS) and incubating for 2 hour at 37° C. in the dark. The laminin flasks were washed with PBS three times before plating cells.
Schwann cells growth medium was prepared by adding 10% of fetal bovine serum (FBS) to high-glucose DMEM and pre-warmed to 37° C. Cells were thawed in a 37° C. water bath for no longer than 2 min.
Cells from 12 vials were each gently transferred to a tube containing 10 ml of high-glucose DMEM medium and centrifuged at 400 relative centrifugal field (RCF) for 10 min. Pellet was resuspended in culture medium. The cells from the 12 vials were mixed and distributed equally into the previously coated 25 cm^2 flasks (n=8). Cells were incubated at 37° C. with 5% CO2. Cells were allowed to settle for 24 hours before LMW-DS treatment.
LMW-DS was provided at a stock concentration of 20 mg/ml and was kept in a temperature monitored refrigerator at 4° C. A fresh […]LMW-DS stock (1.0 mg/ml) was prepared in sterile DMEM-F12. The concentrated drug stock was sterile filtered and added to the respective culture media (19.6 ml CM and 0.4 ml LMW-DS stock solution). The Control was made using 19.6 ml CM and 0.4 ml of DMEM-F12. LMW-DS and CM were added to the respective flasks (5 ml each) to reach the 0.01 mg/ml concentration of LMW-DS in each dish with a total of 10 ml CM each.
CM was aspirated into a clean and labelled 15 ml Falcon tube. The flasks (without culture medium) were placed into the −80° C. freezer for 30 minutes. The CM in the Falcon tubes were spun at 3000×g for 5 minutes. Supernatant was removed and the small pellet was re-suspended in 2.5 ml Trizol:Water (4:1) solution at room temperature (RT, […]).
Two aliquots of 1 ml lysate was removed from each sample and 200 μl of chloroform was added to each (0.2 ml of chloroform per 1 ml of TRIzol Reagent used during the cell lysis step) and the tube was shaken vigorously. Samples were stored at RT for 2-3 minutes and subsequently centrifuged at 12,000×g for 15 minutes at 4° C.
The expression data were downloaded into separate files for each cell line. The ‘Background corrected’ expression is the data from the “gProcessedSignal” of the arrays that is the result of the background signal extracted from the actual signal of the relevant probe. This is the most often used variable in array analysis. The background corrected signal was log 2 transformed for all samples for statistical analysis. To reduce the false discovery rate in the samples, the signals that were below ‘expression level’ were removed. The ‘below expression’ level was set at 5 for the log 2 transformed expression values.
Based on the expression pattern of the Control probes on each array it was decided to carry out Median Centering for all arrays before analysis to reduce the variability of the results. […]

low molecular weight dextran sulfate [LMW-DS]
Complex III (cytochrome bc1), mitochondrial oxidative stress pathway (0.01 mg/ml, 48 h): inhibited | TGFβ-induced effect in adhesion of immune cells, activation and aggregation of cells, fibrosis, self-activation of TGFβ (0.01 mg/ml, 48 h): totally abolished | activity and/or levels of glutamate transporters, in particular SLC1A2/3 (0.01 mg/ml, 48 h): increased | aggregate effect on pathways regulating cell movement and attachment (17 molecules) (0.01 mg/ml, 48 h): cell adhesion would be inhibited while cell movement would be activated | cellular attachment from attachment-related molecules (17 differentially expressed) (0.01 mg/ml, 48 h): overall slightly increased attachment | expression of protein complex (CALM, Gβγ, GRM7, PICK1) (0.01 mg/ml, 48 h): induced the expression | number of genes differentially expressed, D0 control vs D2 LMW-DS treated (0.01 mg/ml, 48 h): 1244 genes | number of genes differentially expressed, D2 control vs D2 LMW-DS treated (0.01 mg/ml, 48 h): 700 genes | number of genes: abolished nutrient effect / no effect (0.01 mg/ml, 48 h): 21 | number of genes: abolished nutrient effect / significant downregulation (0.01 mg/ml, 48 h): 1 | number of genes: abolished nutrient effect / significant upregulation (0.01 mg/ml, 48 h): 13 | number of genes: abolished nutrient effect / total (0.01 mg/ml, 48 h): 35 | number of genes: enhanced response to nutrients / significant downregulation (0.01 mg/ml, 48 h): 122 | number of genes: enhanced response to nutrients / significant upregulation (0.01 mg/ml, 48 h): 441 | number of genes: enhanced response to nutrients / total (0.01 mg/ml, 48 h): 563 | number of genes: new effect induced by LMW-DS / significant downregulation (0.01 mg/ml, 48 h): 352 | number of genes: new effect induced by LMW-DS / significant upregulation (0.01 mg/ml, 48 h): 74 | number of genes: new effect induced by LMW-DS / total (0.01 mg/ml, 48 h): 426 | number of genes: not different from control / significant downregulation (0.01 mg/ml, 48 h): 42 | number of genes: not different from control / significant upregulation (0.01 mg/ml, 48 h): 373 | number of genes: not different from control / total (0.01 mg/ml, 48 h): 415 | number of genes: total / no effect (0.01 mg/ml, 48 h): 21 | number of genes: total / significant downregulation (0.01 mg/ml, 48 h): 517 | number of genes: total / significant upregulation (0.01 mg/ml, 48 h): 901 | number of genes: total / total (0.01 mg/ml, 48 h): 1439 | upstream regulator ANGPT2: activation z-score (D2 LMW-DS treatment): 1.283 | upstream regulator ANGPT2: predicted activation state relative D2 control (D2 LMW-DS treatment): Activated | upstream regulator BMP2: activation z-score (D2 LMW-DS treatment): 1.395 | upstream regulator BMP2: predicted activation state relative D2 control (D2 LMW-DS treatment): Activated | upstream regulator BMP4: activation z-score (D2 LMW-DS treatment): 0.927 | upstream regulator BMP4: predicted activation state relative D2 control (D2 LMW-DS treatment): Activated | upstream regulator BMP7: activation z-score (D2 LMW-DS treatment): 1.86 | upstream regulator BMP7: predicted activation state relative D2 control (D2 LMW-DS treatment): Activated | upstream regulator EGF: activation z-score (D2 LMW-DS treatment): 2.059 | upstream regulator EGF: predicted activation state relative D2 control (D2 LMW-DS treatment): Activated | upstream regulator FGF2: activation z-score (D2 LMW-DS treatment): 2.37 | upstream regulator FGF2: predicted activation state relative D2 control (D2 LMW-DS treatment): Activated | upstream regulator GDF2: activation z-score (D2 LMW-DS treatment): 2.561 | upstream regulator GDF2: predicted activation state relative D2 control (D2 LMW-DS treatment): Activated | upstream regulator HGF: activation z-score (D2 LMW-DS treatment): 1.432 | upstream regulator HGF: predicted activation state relative D2 control (D2 LMW-DS treatment): Activated | upstream regulator IGF1: activation z-score (D2 LMW-DS treatment): 1.332 | upstream regulator IGF1: predicted activation state relative D2 control (D2 LMW-DS treatment): Activated | upstream regulator NRG1: activation z-score (D2 LMW-DS treatment): 1.768 | upstream regulator NRG1: predicted activation state relative D2 control (D2 LMW-DS treatment): Activated | upstream regulator NRTN: activation z-score (D2 LMW-DS treatment): 0.958 | upstream regulator NRTN: predicted activation state relative D2 control (D2 LMW-DS treatment): Activated | upstream regulator PGF: activation z-score (D2 LMW-DS treatment): 0.254 | upstream regulator PGF: predicted activation state relative D2 control (D2 LMW-DS treatment): Activated | upstream regulator TGFβ1: activation z-score (D2 LMW-DS treatment): 1.05 | upstream regulator TGFβ1: predicted activation state relative D2 control (D2 LMW-DS treatment): Less inhibited | upstream regulator VEGFA: activation z-score (D2 LMW-DS treatment): 3.4 | upstream regulator VEGFA: predicted activation state relative D2 control (D2 LMW-DS treatment): Activated | upstream regulator WISP2: activation z-score (D2 LMW-DS treatment): -0.896 | upstream regulator WISP2: predicted activation state relative D2 control (D2 LMW-DS treatment): Less inhibited
